Read-outs that look alike come from different tables or passages of the source.
What was measured:
AChE = AChE (Musca domestica, UniProt Q7YWJ9); assay: biochemical; format: biochemical, fly
Experimental: AChE (E.C. 3.1.1.7) (BR, 200 u/mg) from fly’s head and BuChE (E.C. 3.1.1.8) (BR, 20 u/mg) from horse serum were purchased from Shanghai Yuanye biological technology Co. Ltd (Shanghai, China).
(§1) The inhibitory activities of the compounds against AChE were evaluated according to Ellman’s coupled enzyme assay[47] with the following modifications. 90 μL potassium phosphate buffer (PBS, 0.1 M, pH 7.4), 10 μL the solution of 2 units/mL AChE in 0.1 M PBS (pH 7.4) and 10 μL the solution of 200 μM test compounds in the mixed solution of methanol-PBS (pH 7.4) (1:9, V/V) were added to each well of a 96-well plate. The methanol-PBS solution was used as a blank control. After incubation at room temperature for 10 min, 60 μL the solution of 10 mM DTNB in PBS was added into each the well. The plate was placed on crushed ices and cooled for 20 min. To each the well was added 30 μL the solution of 7.5 mM ATCh in PBS (pH 7.4). […] Each test was performed in triplicate. Inhibition rates of the enzyme were calculated relative to a control sample. The inhibitory activities against BuChE were measured as described above for AChE, using 0.7 unit/mL BuChE and 4 mM BuTCh instead of AChE and ATCh as the enzyme and substrate, respectively.
(§2) The probit value of the average inhibition rate for each test concentration and the corresponding lg[concentration] were used to establish enzyme inhibition regression equation by the linear least-square fitting method. IC50 values were calculated from the equations.

BuChE = molecular target: T1, BuChE (Equus caballus, UniProt P81908); assay: BuChE inhibition, Ellman's method; format: biochemical, horse; conditions: read-out: IC50 ± S.D BuChE
T1 construct: BuChE (E.C. 3.1.1.8) (BR, 20 u/mg) from horse serum; purchased Shanghai Yuanye biological technology Co. Ltd (Shanghai, China); host or cells: horse serum (tissue-derived)
Source text: There is increasing recognition that BuChE may play an important role in cholinergic transmission[15],[16]. While the level of AChE decreases dramatically in the advanced stage of AD, BuChE increases in brain regions involved in cognitive functions[17],[18]. At this point, BuChE is able to compensate for AChE loss by hydrolyzing ACh. These observations lead one to believe that inhibition of both AChE and BuChE may contribute to improvement of current symptomatic treatments of AD. Therefore, the compounds in Table 2 were also evaluated for BuChE inhibition activity by means of Ellman’s method. […] AChE (E.C. 3.1.1.7) (BR, 200 u/mg) from fly’s head and BuChE (E.C. 3.1.1.8) (BR, 20 u/mg) from horse serum were purchased from Shanghai Yuanye biological technology Co. Ltd (Shanghai, China).
as §1, §2

[1] = test concentration of the compound 10 μM
[2] = Estimated values based on the results in Table 1 (inhibition rate at 10 μM), read-out: IC50 AChE, estimated values

T1 sequence (P81908 whole entry): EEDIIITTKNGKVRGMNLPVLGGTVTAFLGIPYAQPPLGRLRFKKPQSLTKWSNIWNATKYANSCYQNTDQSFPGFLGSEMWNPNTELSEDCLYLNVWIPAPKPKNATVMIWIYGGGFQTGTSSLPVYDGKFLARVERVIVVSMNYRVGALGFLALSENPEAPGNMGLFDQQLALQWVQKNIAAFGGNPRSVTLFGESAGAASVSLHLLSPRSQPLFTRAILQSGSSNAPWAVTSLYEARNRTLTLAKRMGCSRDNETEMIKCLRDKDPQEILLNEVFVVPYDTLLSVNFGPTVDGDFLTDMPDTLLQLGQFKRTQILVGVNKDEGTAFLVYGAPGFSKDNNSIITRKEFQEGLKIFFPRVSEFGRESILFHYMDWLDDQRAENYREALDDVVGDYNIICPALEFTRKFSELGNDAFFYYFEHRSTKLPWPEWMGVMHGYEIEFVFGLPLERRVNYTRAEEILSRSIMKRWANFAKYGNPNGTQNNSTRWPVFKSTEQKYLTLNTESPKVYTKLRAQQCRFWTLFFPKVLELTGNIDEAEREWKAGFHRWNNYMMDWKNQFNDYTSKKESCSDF
AChE, sequence (Q7YWJ9 81-659): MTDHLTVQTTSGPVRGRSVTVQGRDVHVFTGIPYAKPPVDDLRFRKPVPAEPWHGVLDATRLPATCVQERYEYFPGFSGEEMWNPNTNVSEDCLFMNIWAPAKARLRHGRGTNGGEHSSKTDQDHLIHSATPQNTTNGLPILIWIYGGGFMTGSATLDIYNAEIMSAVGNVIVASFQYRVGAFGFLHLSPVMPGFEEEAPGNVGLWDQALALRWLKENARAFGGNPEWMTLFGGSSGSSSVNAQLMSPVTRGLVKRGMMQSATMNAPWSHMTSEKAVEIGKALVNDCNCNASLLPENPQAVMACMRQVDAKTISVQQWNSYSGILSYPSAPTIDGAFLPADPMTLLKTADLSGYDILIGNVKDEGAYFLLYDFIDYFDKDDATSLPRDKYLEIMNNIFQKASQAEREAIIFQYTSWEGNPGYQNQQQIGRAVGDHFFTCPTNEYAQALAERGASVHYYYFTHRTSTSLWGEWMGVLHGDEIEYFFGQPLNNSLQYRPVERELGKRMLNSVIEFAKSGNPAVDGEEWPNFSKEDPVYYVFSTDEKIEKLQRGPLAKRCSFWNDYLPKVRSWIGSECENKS

Row | Structure (SMILES) | SI: selectivity index, ratio IC50 (BuChE)/IC50 (AChE) (AChE) | IC50 (AChE; read-out: IC50 ± S.D AChE) | Inhibition rate (%) (AChE; [1]) | IC50 (BuChE) | IC50 (AChE; [2]) | IC50 (AChE; 10 μM, read-out: IC50 AChE, NA) | Inhibition rate (%) (AChE; test concentration of the compound 10 μM, 10 µM) | inhibition at 10 µM (AChE; test concentration of the compound 10 μM, read-out: Inhibition rate (%))
1 | Cc1ccc2c(c1)c1c(n2C)C=[N+](c2ccccc2)CC1.[Br-] [Compound A35] | 3.98 | 2.66 ± 0.37 µM | 70.3 ± 2.2 bc % | 10.6 ± 0.58 µM |  |  |  | 
2 | Cn1c2ccccc2c2cc[n+](-c3ccc(Br)cc3)cc21.[Br-] [Compound B10, 9-Methyl-2-(4-bromophenyl)-β-carboline bromide] | 128.8 | 0.43 ± 0.04 µM | 95.4 ± 0.8 ab % | 55.4 ± 1.73 µM |  |  |  | 
3 | Cn1c2c(c3ccccc31)CC[N+](c1ccc(I)cc1)=C2.[Br-] [Compound A13] | 9.80 | 5.5 ± 0.37 µM | 54.2 ± 3.2 ef % | 53.8 ± 2.51 µM |  |  |  | 
4 | Cn1c2ccccc2c2cc[n+](-c3ccccc3C#N)cc21.[Br-] [Compound B23, 9-Methyl-2-(2-cyanophenyl)-β-carboline bromide] | 44.4 | 4.41 ± 0.29 µM | 68.7 ± 0.7 lm % | 196 ± 13.4 µM |  |  |  | 
5 | Cc1cccc(-[n+]2ccc3c4ccccc4n(C)c3c2)c1.[Br-] [Compound B21, 9-Methyl-2-(3-methylphenyl)-β-carboline bromide] | 13.6 | 5.05 ± 0.26 µM | 72.4 ± 3.9 l % | 68.6 ± 8.06 µM |  |  |  | 
6 | CCCCn1c2c(c3ccccc31)CC[N+](c1ccccc1)=C2.[Br-] [Compound A42] | 1.02 | 9.79 ± 3.55 µM | 53.9 ± 1.5 ef % | 10 ± 0.68 µM |  |  |  | 
7 | CCCn1c2c(c3ccccc31)CC[N+](c1ccccc1)=C2.[Br-] [Compound A39] | 2.27 | 5.72 ± 0.66 µM | 67.1 ± 2.4 c % | 13 ± 0.62 µM |  |  |  | 
8 | COc1ccc(-[n+]2ccc3c4ccccc4n(C)c3c2)cc1.[Br-] [Compound B19, 9-Methyl-2-(4-methoxylphenyl)-β-carboline bromide] | 72.3 | 0.47 ± 0.04 µM | 90.7 ± 0.8 def % | 34 ± 2 µM |  |  |  | 
9 | Cn1c2ccccc2c2cc[n+](-c3cccc(I)c3)cc21.[Br-] [Compound B12, 9-Methyl-2-(3-iodohenyl)-β-carboline bromide] | 1.90 | 11.1 ± 1.34 µM | 56.4 ± 5.9 no % | 21.1 ± 0.46 µM |  |  |  | 
10 | C1=[N+](c2ccccc2)CCc2c1[nH]c1ccccc21.[Br-] [Compound A46] |  | 18.2 ± 1.97 µM | 41.3 ± 1.4 ij % | 3.9 ± 0.53 µM |  |  |  | 
11 | Cn1c2c(c3ccccc31)CC[N+](c1ccccc1)=C2.[Br-] [Compound A1] | 0.54 | 18.6 ± 2.93 µM | 40.9 ± 2.1 ij % | 10.1 ± 1.66 µM |  |  |  | 
12 | Cn1c2c(c3ccc(Cl)cc31)CC[N+](c1ccccc1)=C2.[Br-] [Compound A37] | 2.91 | 4.02 ± 0.95 µM | 66.6 ± 4.7 c % | 11.7 ± 0.5 µM |  |  |  | 
13 | Cn1c2ccccc2c2cc[n+](-c3ccc(Br)cc3F)cc21.[Br-] [Compound B32, 9-Methyl-2-(2-fluoro-4-bromophenyl)-β-carboline bromide] | 385.0 |  | 92.8 ± 1.0 abc % | 116 ± 18.2 µM |  |  |  | 
14 | COc1ccc2c(c1)c1c(n2C)C=[N+](c2ccccc2)CC1.[Br-] [Compound A34] | 18.4 | 2.04 ± 0.33 µM | 68.4 ± 2.8 c % | 37.6 ± 2.84 µM |  |  |  | 
15 | Cn1c2c(c3ccccc31)CC[N+](c1ccc(Br)cc1)=C2.[Br-] [Compound A10] | 11.2 | 6.79 ± 2.29 µM | 60.3 ± 1.6 d % | 76.2 ± 11 µM |  |  |  | 
16 | Cn1c2c(c3ccccc31)CC[N+](c1cccc(O)c1)=C2.[Br-] [Compound A15] | 1.63 | 6.12 ± 0.61 µM | 51.8 ± 9.1 fg % | 10 ± 0.59 µM |  |  |  | 
17 | Cn1c2c(c3ccccc31)CC[N+](c1ccc(F)cc1)=C2.[Br-] [Compound A4] | 4.22 | 14.1 ± 1.41 µM | 49.3 ± 2.2 fgh % | 59.5 ± 2.72 µM |  |  |  | 
18 | Cn1c2ccccc2c2cc[n+](-c3ccc(C(F)(F)F)cc3)cc21.[Br-] [Compound B27, 9-Methyl-2-(4-trifluoromethylphenyl)-β-carboline bromide] | 111.3 | 0.7 ± 0.11 µM | 91.4 ± 0.3 bcde % | 77.9 ± 4.97 µM |  |  |  | 

Row | Structure (SMILES) | SI: selectivity index, ratio IC50 (BuChE)/IC50 (AChE) (AChE) | IC50 (AChE; read-out: IC50 ± S.D AChE) | Inhibition rate (%) (AChE; [1]) | IC50 (BuChE) | IC50 (AChE; [2]) | IC50 (AChE; 10 μM, read-out: IC50 AChE, NA) | Inhibition rate (%) (AChE; test concentration of the compound 10 μM, 10 µM) | inhibition at 10 µM (AChE; test concentration of the compound 10 μM, read-out: Inhibition rate (%))
19 | Cc1ccccc1-[n+]1ccc2c3ccccc3n(C)c2c1.[Br-] [Compound B20, 9-Methyl-2-(2-methylphenyl)-β-carboline bromide] | 15.9 | 9.71 ± 0.55 µM | 59.6 ± 3.2 n % | 154 ± 9.1 µM |  |  |  | 
20 | CC(C)n1c2c(c3ccccc31)CC[N+](c1ccccc1)=C2.[Br-] [Compound A40] | 4.37 | 3.73 ± 0.34 µM | 68.9 ± 5.1 bc % | 16.3 ± 0.56 µM |  |  |  | 
21 | CCOC(=O)Cn1c2c(c3ccccc31)CC[N+](c1ccccc1)=C2.[Br-] [Compound A45] |  |  | 38.8 ± 4.6 j % |  | > 10 µM |  |  | 
22 | Cc1ccc2c(c1)c1cc[n+](-c3ccccc3)cc1n2C.[Br-] [Compound B35, 6,9-Dimethyl-2-phenyl-β-carboline bromide] |  | 0.42 ± 0.15 µM | 88.6 ± 2.5 efg % |  |  |  |  | 
23 | Brc1ccc([N+]2=Cc3[nH]c4ccccc4c3CC2)cc1.[Br-] [Compound A47] |  |  | 16.0 ± 1.7 mnop % |  | > 10 µM |  |  | 
24 | Cn1c2c(c3ccccc31)CC[N+](c1ccccc1C#N)=C2.[Br-] [Compound A23] |  |  | 10.1 ± 1.6 pqr % |  | > 10 µM |  |  | 
25 | CCOC(=O)Cn1c2ccccc2c2cc[n+](-c3ccccc3)cc21.[Br-] [Compound B45, 9-(Ethoxy-2-oxyethyl)-2-phenyl-β-carboline bromide] |  |  | 42.0 ± 0.7 rs % |  | > 10 µM |  |  | 
26 | Cn1c2c(c3ccccc31)CC[N+](c1ccccc1Cl)=C2.[Br-] [Compound A5] |  |  | 2.4 ± 8.0 stu % |  | > 10 µM |  |  | 
27 | Cn1c2cc(F)ccc2c2cc[n+](-c3ccccc3)cc21.[Br-] [Compound B36, 7-Fluoro-9-methyl-2-phenyl-β-carboline bromide] |  | 2.61 ± 0.51 µM | 76.2 ± 1.1 k % |  |  |  |  | 
28 | Cn1c2c(c3ccccc31)CC[N+](c1ccc(C(F)(F)F)cc1)=C2.[Br-] [Compound A27] |  |  | 28.4 ± 1.0 k % |  | > 10 µM |  |  | 
29 | COc1ccccc1[N+]1=Cc2c(c3ccccc3n2C)CC1.[Br-] [Compound A17] |  |  | 5.8 ± 2.4 qrs % |  | > 10 µM |  |  | 
30 | Cn1c2c(c3ccccc31)CC[N+](c1ccc(Br)cc1Br)=C2.[Br-] [Compound A33] |  |  | no activity |  |  | > 10 µM | −7.0 ± 8.3 vw % | 
31 | Cc1ccc(N2CCc3c(n(C)c4ccccc34)C2)cc1 [Compound C1, 9-methyl-2-p-toly-1,2,3,4-tetrahydro-β-carboline] |  |  |  |  |  | > 10 µM |  | -2.3 ± 3.2%
32 | Cn1c2ccccc2c2cc[n+](-c3cccc(C(F)(F)F)c3)cc21.[Br-] [Compound B26, 9-Methyl-2-(3-trifluoromethylphenyl)-β-carboline bromide] |  |  | 41.0 ± 1.9 rs % |  | > 10 µM |  |  | 
33 | Cn1c2ccccc2c2cc[n+](-c3ccccc3Cl)cc21.[Br-] [Compound B5, 9-Methyl-2-(2-chlorophenyl)-β-carboline bromide] |  |  | 38.5 ± 1.9 st % |  | > 10 µM |  |  | 
34 | Cn1c2c(c3ccccc31)CC[N+](c1cccc(C#N)c1)=C2.[Br-] [Compound A24] |  |  | 18.9 ± 0.3 lmn % |  | > 10 µM |  |  | 
35 | CC(C)Cn1c2ccccc2c2cc[n+](-c3ccccc3)cc21.[Br-] [Compound B43, 9-Iso-butyl-2-phenyl-β-carboline bromide] |  | 0.98 ± 0.03 µM | 84.1 ± 0.6 hi % |  |  |  |  | 

— article PMC5784158, “New 2-Aryl-9-methyl-β-carbolinium salts as Potential Acetylcholinesterase Inhibitor agents: Synthesis, Bioactivity and Structure–Activity Relationship” (Scientific Reports, 2018)
